Experimental data taken from US7981915B2, “Methods for modulating PPAR biological activity for the treatment of diseases caused by mutations in the CFTR gene” (Beth Israel Deaconess Medical Center, priority 2003, dated 2011).

Tests used:
TNFα = assay: LPS-induced TNFα secretion from peritoneal macrophages incubated in vitro with PPAR agonists; type: cell-based, mice; settings: in vitro 12 hours, DHA 5 μM, Wy14643 50 μM, rosiglitazone 10 μM
Procedure: (§1) Cftr^−/− exon 10 knockout mice and wild-type (WT) littermates were maintained on peptamen (as described above). Peritoneal macrophages were induced by intraperitoneal injection of 2 ml thioglycollate broth followed by harvesting of the macrophages 4 days after injection. For studies determining the effect of in vivo pretreatment of DHA, cftr^−/− mice were given 40 mg DHA/day for 10 days. For in vitro experiments, harvested macrophages were plated in RPMI medium with 10% serum and incubated for 12 hours with media alone or with DHA (5 μM), EPA (5 μM) the PPAR agonist Wy14643 (50 μM) or the PPAR agonist rosiglitazone (10 μM). The cells were washed and then stimulated with 0-10000 ng/ml LPS for 4.5 hours. TNFα and IL-6 secretion were measured by ELISA. Fatty acids were analyzed by GC/MS.

IL-6 [1] = assay: LPS-induced IL-6 secretion from peritoneal macrophages incubated in vitro with PPAR agonists; type: cell-based, mice; settings: CF macrophages; in vitro 12 hours; Wy14643 50 μM, rosiglitazone 10 μM; 100 ng/ml LPS
PPARγ mRNA = assay: Liver PPARγ mRNA by quantitative RT-PCR (DSS colitis / DHA); type: in vivo; settings: WT and cftr−/− mice; DSS in the absence or presence of DHA; to undetectable levels
Procedure: (§2) On day 40, WT and cftr^−/− mice were fed Peptamen alone or Peptamen plus 125 mg DSS/day (MP Biomedicals, Aurora, Ohio) for 5 days followed by 9 days of 85 mg DSS/day as previously described for the genesis of bile duct injury (Blanco, P. G. et al., supra). The amount of DSS in Peptamen was equally measured for WT and cftr^−/− mice. The volume of Peptamen administered (20 ml) was measured on a daily basis. There was no difference in Peptamen intake between WT and cftr^−/− mice. The mean weight of WT mice at the start of DSS treatment was 20.5 g (range 14.5-26 g), and the mean weight of cftr^−/− mice was 18.9 g (range 15.5-23.5 g). […] Bile duct injury was quantified, as previously described, by examining histological features of epithelial injury, bile duct proliferation, and bile duct angulation (Blanco et al., supra). […]
After each specific treatment, the mice were euthanized with carbon dioxide. […] PPAR mRNA analyses were performed by quantitative RT-PCR. Total RNA from cftr^−/− and WT tissues was prepared using the RNA STAT-60 isolation reagent (Tel-Test, Friendswood, Tex.) and quantified spectrophotometrically. Quantitative PCR was performed in an ABI Prism 7700 Sequence Detector (Applied Biosystems, Foster City, Calif.) using a RT-PCR master mix kit (Applied Biosystems) according to the manufacturer's instructions. […] All samples were analyzed in duplicate.

PPARα = molecular target: T1, PPARα (Mus musculus, UniProt P23204); assay: Western blot of PPARα in nuclear and cytosolic liver extracts; type: in vivo; settings: 3 mice per group
T1 construct: from tissue; host or cells: mouse liver homogenate (WT and cftr-/- C57/BL6)
T1 sequence (P23204 1-468): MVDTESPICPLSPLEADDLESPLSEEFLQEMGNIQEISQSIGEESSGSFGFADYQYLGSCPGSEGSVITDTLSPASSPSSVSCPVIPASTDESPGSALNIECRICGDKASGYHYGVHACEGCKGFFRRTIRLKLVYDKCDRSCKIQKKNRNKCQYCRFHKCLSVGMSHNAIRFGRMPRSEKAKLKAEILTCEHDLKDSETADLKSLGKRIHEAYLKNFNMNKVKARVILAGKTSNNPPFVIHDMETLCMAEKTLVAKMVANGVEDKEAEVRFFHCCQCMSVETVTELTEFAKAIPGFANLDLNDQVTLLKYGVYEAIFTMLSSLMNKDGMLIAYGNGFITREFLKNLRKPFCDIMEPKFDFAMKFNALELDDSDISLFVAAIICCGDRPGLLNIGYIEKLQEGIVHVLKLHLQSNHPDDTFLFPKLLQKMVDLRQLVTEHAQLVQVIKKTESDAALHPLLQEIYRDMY
Procedure: as §2, with “g). These values were not statistically different between WT and cftr^−/− mice. […] There was no difference in weight lost during DSS treatment comparing WT and cftr^−/− mice.” for “g).”
For western blotting, nuclear and cytoplasmic extracts were prepared as described previously (Ollero et al., supra). […] Protein concentration was measured in all samples by the Bradford protein assay (Bio-Rad, Hercules, Calif.). […]

PPARα mRNA [2] = assay: Liver PPARα mRNA by quantitative RT-PCR (DSS colitis / DHA); type: in vivo, mice
Procedure: On day 40, WT and cftr^−/− mice were fed Peptamen alone or Peptamen plus 125 mg DSS/day (MP Biomedicals, Aurora, Ohio) for 5 days followed by 9 days of 85 mg DSS/day as previously described for the genesis of bile duct injury (Blanco, P. G. et al., supra). The amount of DSS in Peptamen was equally measured for WT and cftr^−/− mice. The volume of Peptamen administered (20 ml) was measured on a daily basis. There was no difference in Peptamen intake between WT and cftr^−/− mice. The mean weight of WT mice at the start of DSS treatment was 20.5 g (range 14.5-26 g), and the mean weight of cftr^−/− mice was 18.9 g (range 15.5-23.5 g). These values were not statistically different between WT and cftr^−/− mice. […] There was no difference in weight lost during DSS treatment comparing WT and cftr^−/− mice. Additional mice from these groups were given DHA (Pure Encapsulations, Sudbury, Mass.) prepared as a stable emulsion in Peptamen, at a dose of 40 mg per day for 5 days before and continued for 14 days during administration of the DSS. Bile duct injury was quantified, as previously described, by examining histological features of epithelial injury, bile duct proliferation, and bile duct angulation (Blanco et al., supra). To determine whether a complete absence of PPARα was responsible for the bile duct injury, 5 PPARα^−/− mice were treated with 5% DSS in drinking water for 7 days to induce colitis (Okayasu et al., Gastroenterology, 98:694-702, 1990). PPARγ^−/− mice are not viable and thus were not tested.
After each specific treatment, the mice were euthanized with carbon dioxide. Tissues were snap frozen in RNAlater (Ambion, Austin, Tex.) for RNA extraction (Barrett et al., Nat Genet, 23:32-33, 1999). PPAR mRNA analyses were performed by quantitative RT-PCR. Total RNA from cftr^−/− and WT tissues was prepared using the RNA STAT-60 isolation reagent (Tel-Test, Friendswood, Tex.) and quantified spectrophotometrically. Quantitative PCR was performed in an ABI Prism 7700 Sequence Detector (Applied Biosystems, Foster City, Calif.) using a RT-PCR master mix kit (Applied Biosystems) according to the manufacturer's instructions. PCR primers and PPAR FAM-labeled TaqMan probes were from Integrated DNA Technologies (Coralville, Iowa). The oligonucleotide sequences used for PPARγ were the following: PPARγ exon 2 FW 5′-TCACAAGAGCTGACCCAATGGT-3′ (SEQ ID NO: 1), PPARγ exon 2 RV 5′-ATAATAAGGTGGAGATGCAGGTTCTAC-3′ (SEQ ID NO: 2), PPARγ probe 5′-FAM-CTGAAGCTCCAAGAATACCAAAGTGCGATC-TAMRA-3′ (SEQ ID NO: 3). The sequences used for PPARα were the following: PPARα FW 5′-TATTCGGCTGAAGCTGGTGTAC-3′ (SEQ ID NO: 9), PPARα RV 5′-CTGGCATTTGTTCCGGTTCT-3′ (SEQ ID NO: 10), PPARα probe 5′-CTGAATCTTGCAGCTCCGATCACACTTG-3′ (SEQ ID NO: 11). Levels of mRNA were normalized to 18s ribosomal RNA (ribosomal RNA control reagents, Applied Biosystems) quantified simultaneously to PPAR in a multiplex RT-PCR reaction. Thermocycler conditions used were—Stage 1: 48° C./30 minutes; Stage 2: 95° C./10 minutes; Stage 3: 40 cycles of 95° C./15 seconds and 60° C./60 seconds. All samples were analyzed in duplicate.

IL-6 [3] = assay: LPS-induced IL-6 secretion from peritoneal macrophages after in vivo DHA pretreatment; set-up: species or system mice; settings: CF peritoneal macrophages; oral DHA pretreatment 40 mg/day for 10 days
Procedure: as §1

PPARα mRNA [4] = settings: rat liver; cited from earlier work
[5] = WT mice, single treatment, compared to untreated
[6] = cftr−/− mice, single treatment, compared to untreated

With `CC/C=C\C/C=C\C/C=C\C/C=C\C/C=C\CCCC(=O)O` [EPA, eicosapentaenoic acid] the “decrease in LPS induced TNFα secretion” value (TNFα; CF macrophages, EPA 5 μM, 100 ng/ml LPS) was “no effect”.

With `CN(CCOc1ccc(CC2SC(=O)NC2=O)cc1)c1ccccn1` (stereo not shown) [rosiglitazone] the “decrease in LPS induced IL-6 secretion” value (IL-6 [1]) was “no effect” and the “decrease in LPS induced TNFα secretion” value (TNFα; WT macrophages) was 18%.

For dextran sodium sulfate [DSS], the “liver PPARγ mRNA levels” value (PPARγ mRNA) was “markedly suppressed”, the “PPARα nuclear/cytoplasmic ratio, liver (densitometry)” value (PPARα; WT mice) was 1.06±0.05 and the “PPARα nuclear/cytoplasmic ratio, liver (densitometry)” value (PPARα; cftr−/− mice) was 0.61±0.02. The “increase in liver PPARα mRNA” value (PPARα mRNA [2]; [5]) was 9.3 fold and the “increase in liver PPARα mRNA” value (PPARα mRNA [2]; [6]) was “no significant change”.

In the case of `CC/C=C\C/C=C\C/C=C\C/C=C\C/C=C\C/C=C\CCC(=O)O` [DHA, Docosahexaenoic Acid], the “LPS-induced IL-6 secretion” value (IL-6 [3]) is reported as “no effect”, the “increase in liver PPARα mRNA” value (PPARα mRNA [2]; WT mice, combination of DSS and DHA, compared to no DSS and no DHA) is reported as 10.4 fold and the “increase in liver PPARα mRNA” value (PPARα mRNA [2]; [5]) is reported as 12.1 fold. The “increase in liver PPARα mRNA” value (PPARα mRNA [2]; cftr−/− mice, combination of DSS and DHA, compared to DSS only, not statistically significant) was 2.7 fold, the “increase in liver PPARα mRNA” value (PPARα mRNA [2]; cftr−/− mice, combination of DSS and DHA, compared to no DSS and no DHA) was 4.3 fold and the “increase in liver PPARα mRNA” value (PPARα mRNA [2]; [6]) was 7.0 fold.

In the case of `Cc1cccc(Nc2cc(Cl)nc(SCC(=O)O)n2)c1C` [Wy14643], the “decrease in LPS induced TNFα secretion” value (TNFα; WT macrophages) is listed as “did not alter secretion” and the “PPARα mRNA levels” value (PPARα mRNA [4]) is listed as “increase PPARα mRNA levels”.
